We go through 52 molecules from ChEMBL document CHEMBL1132938, “Novel synthetic oleanane and ursane triterpenoids with various enone functionalities in ring A as inhibitors of nitric oxide production in mouse macrophages” (J Med Chem, 2000).

Molecules are shown by their SMILES.

For the assay, the species on record is Mus musculus. Description: Percent inhibition of nitric oxide production induced by IFN-uM concentration. It counts as functional. The arrangement: concentration or dose not given beside the values.
Consider `CC1(C)CC[C@]2(C(=O)O)CC[C@@](C)([C@]3(C)CC[C@H]4C(C)(C)C(=O)CC[C@]4(C)[C@H]3CC(=O)O)C(=O)C2C1` (some centres not stated), for which the Inhibition (as a rule, the drop in the measured response relative to a control, in per cent) is reported as 28%. `COC(=O)C12CCC(C)(C)CC1C1=CC[C@@H]3[C@@]4(C)CC[C@H](OC(C)=O)C(C)(C)[C@@H]4CC[C@@]3(C)[C@]1(C)CC2` (some centres not stated) yielded an Inhibition of 10%. `COC(=O)C12CCC(C)(C)CC1[C@H]1C(=O)C[C@@H]3[C@@]4(C)CCC(=O)C(C)(C)[C@@H]4CC[C@@]3(C)[C@]1(C)CC2` (some centres not stated) came in with an Inhibition of 3%. `C[C@@H]1CC[C@]2(C(=O)O)CC[C@]3(C)C(=CC[C@@H]4[C@@]5(C)C[C@@H](Cl)C(=O)C(C)(C)[C@@H]5CC[C@]43C)C2[C@H]1C` (some centres not stated) had an Inhibition of 55%. Consider `CC1(C)CC[C@]2(C(=O)O)CC[C@]3(C)C(=CC[C@@H]4[C@@]5(C)CC[C@H](O)C(C)(C)[C@@H]5CC[C@]43C)[C@@H]2C1` [OLEANOLIC_ACID], for which the Inhibition is listed as 38%. Under `CC(=O)O[C@H]1CC[C@]2(C)[C@H]3CC=C4[C@@H]5CC(C)(C)CC[C@]5(C(=O)O)CC[C@@]4(C)[C@]3(C)CC[C@H]2C1(C)C` [ACETYL OLEANOLIC ACID] stands 0%; under `COC(=O)C12CCC(C)(C)CC1[C@H]1[C@@H](O)C[C@@H]3[C@@]4(C)CC[C@H](OC(C)=O)C(C)(C)[C@@H]4CC[C@@]3(C)[C@]1(C)CC2` (some centres not stated), 0%. For `CC1(C)CCC2(CO)CC[C@]3(C)C(=CC[C@@H]4[C@@]5(C)CC[C@H](O)C(C)(C)[C@@H]5CC[C@]43C)C2C1` (some centres not stated) the value was 0%. For `CC1(C)CC[C@]2(C(=O)O)CC[C@]3(C)C(=CC[C@@H]4[C@@]5(C)C=CC(=O)C(C)(C)[C@@H]5CC[C@]43C)C2C1` (some centres not stated) the value was 85%. For the molecule `C=C(C)[C@@H]1CC[C@]2(C)[C@H](CC=C3C4[C@@H](C)[C@H](C)CC[C@]4(C(=O)O)CC[C@]32C)[C@@]1(C)CCC=O` (some centres not stated), the Inhibition amounted to 55%. Under `COC(=O)C12CC[C@@H](C)[C@H](C)C1C1=CC[C@@H]3[C@@]4(C)CC[C@H](O)C(C)(C)[C@@H]4CC[C@@]3(C)[C@]1(C)CC2` (some centres not stated) stands 0%.

In the case of `C=C(C)[C@@H]1CC[C@]2(C)[C@H](CC=C3C4CC(C)(C)CC[C@]4(C(=O)O)CC[C@]32C)[C@@]1(C)CCC#N` (some centres not stated), the Inhibition came to 33%. For `COC(=O)C12CC[C@@H](C)[C@H](C)C1C1=CC[C@@H]3[C@@]4(C)CCC(=O)C(C)(C)[C@@H]4CC[C@@]3(C)[C@]1(C)CC2` (some centres not stated) the value was 16%; for `C=C(C)[C@@H]1CC[C@]2(C)[C@H](CC=C3C4CC(C)(C)CC[C@]4(C(=O)O)CC[C@]32C)[C@@]1(C)CCC=O` (some centres not stated), 22%; for `COC(=O)C12CCC(C)(C)CC1[C@]13O[C@H]1C[C@@H]1[C@@]4(C)CC[C@H](OC(C)=O)C(C)(C)[C@@H]4CC[C@@]1(C)[C@]3(C)CC2` (some centres not stated), 0%.

With `CC(=O)O[C@H]1CC[C@]2(C)[C@H]3CC=C4C5[C@@H](C)[C@H](C)CCC5(C(=O)O)CC[C@@]4(C)[C@]3(C)CC[C@H]2C1(C)C` (some centres not stated), the Inhibition stood at 0%.

`CC(=O)OCC12CCC(C)(C)CC1C1=CC[C@@H]3[C@@]4(C)CC[C@H](OC(C)=O)C(C)(C)[C@@H]4CC[C@@]3(C)[C@]1(C)CC2` (some centres not stated) had an Inhibition of 4%. Under `CC1(C)CCC2(CO)CC[C@]3(C)[C@@](O)(C2C1)[C@@H](O)C[C@@H]1[C@@]2(C)CC[C@H](O)C(C)(C)[C@@H]2CC[C@]13C` (some centres not stated) stands 22%. For `CC1(C)CCC2(C=O)CC[C@]3(C)[C@H](C(=O)C[C@@H]4[C@@]5(C)CCC(=O)C(C)(C)[C@@H]5CC[C@]43C)C2C1` (some centres not stated), the Inhibition was 38%. Molecule `C[C@@H]1CCC2(C(=O)O)CC[C@]3(C)C(=CC[C@@H]4[C@@]5(C)CC[C@@H](O)C(C)(C)[C@@H]5CC[C@]43C)C2[C@H]1C` (some centres not stated) had an Inhibition of 48%. For the molecule `CC(=O)OC[C@]12CCC(C)(C)CC1C(O)[C@](C)([C@]1(C)CC[C@H]3C(C)(C)[C@@H](OC(C)=O)CC[C@]3(C)[C@H]1CCO)CC2` (some centres not stated), the Inhibition worked out at 12%. Under `COC(=O)[C@]12CCC(C)(C)C[C@H]1C1=CC[C@@H]3[C@@]4(C)CC[C@H](O)C(C)(C)[C@@H]4CC[C@@]3(C)[C@]1(C)CC2` [METHYL OLEANOLATE] stands 0%; under `COC(=O)C12CC[C@@H](C)[C@H](C)C1C1=CC[C@@H]3[C@@]4(C)CC[C@H](OC(C)=O)C(C)(C)[C@@H]4CC[C@@]3(C)[C@]1(C)CC2` (some centres not stated), 15%. Take `C=C(C)[C@@H]1CC[C@]2(C)[C@H](CC=C3C4[C@@H](C)[C@H](C)CC[C@]4(C(=O)O)CC[C@]32C)[C@@]1(C)CCC(=O)O` (some centres not stated): the Inhibition amounted to 10%. Under `CC1(C)CCC2(C(=O)O)CC[C@]3(C)[C@H](C(=O)C[C@@H]4[C@@]5(C)CCC(=O)C(C)(C)[C@@H]5CC[C@]43C)C2C1` (some centres not stated) stands 37%.

For `COC(=O)C12CCC(C)(C)CC1[C@H]1[C@H](O)C[C@@H]3[C@@]4(C)CC[C@H](OC(C)=O)C(C)(C)[C@@H]4CC[C@@]3(C)[C@]1(C)CC2` (some centres not stated), the Inhibition was 0%. For `C[C@@H]1CCC2(CO)CC[C@]3(C)C(=CC[C@@H]4[C@@]5(C)CC[C@H](O)C(C)(C)[C@@H]5CC[C@]43C)C2[C@H]1C` (some centres not stated) the value was 8%; for `CC(C)C1=C2CC[C@]3(C)[C@H](CC=C4C5CC(C)(C)CCC5(C(=O)O)CC[C@]43C)[C@@]2(C)CC1` (some centres not stated), 0%; for `COC(=O)C12CCC(C)(C)CC1C1=CC[C@@H]3[C@@]4(C)CCC(=O)C(C)(C)[C@@H]4CC[C@@]3(C)[C@]1(C)CC2` (some centres not stated), 24%. Under `C[C@@H]1CCC2(C=O)CC[C@]3(C)C(=CC[C@@H]4[C@@]5(C)CCC(=O)C(C)(C)[C@@H]5CC[C@]43C)C2[C@H]1C` (some centres not stated) stands 21%. In turn, `COC(=O)C12CCC(C)(C)CC1C1=CC[C@@H]3[C@@]4(C)CC[C@@H](Cl)C(C)(C)[C@@H]4CC[C@@]3(C)[C@]1(C)CC2` (some centres not stated) returned an Inhibition of 2%. Regarding `CC1(C)CCC2(C(=O)O)CC[C@]3(C)C(=CC[C@@H]4[C@@]5(C)CC=CC(C)(C)[C@@H]5CC[C@]43C)C2C1` (some centres not stated), the Inhibition came out at 0%.

Consider `CC1(C)CCC2(CO)CC[C@]3(C)[C@@H](C2C1)[C@@H](O)C[C@@H]1[C@@]2(C)CC[C@H](O)C(C)(C)[C@@H]2CC[C@]13C` (some centres not stated), for which the Inhibition is given as 48%. For `C=C(C)[C@@H]1CC[C@]2(C)[C@H](CC=C3C4CC(C)(C)CC[C@]4(C(=O)OC)CC[C@]32C)[C@@]1(C)CCC#N` (some centres not stated) the value was 21%; for `COC(=O)C12CC[C@@H](C)[C@H](C)C1C1=CC[C@@H]3[C@@]4(C)C=CC(=O)C(C)(C)[C@@H]4CC[C@@]3(C)[C@]1(C)CC2` (some centres not stated), 0%. For `CC1(C)CC[C@@]23CC[C@]4(C)[C@](OC2=O)(C(=O)C[C@@H]2[C@@]5(C)CCC(=O)C(C)(C)[C@@H]5CC[C@]24C)C3C1` (some centres not stated) the value was 0%. For `COC(=O)C12CCC(C)(C)CC1[C@H]1C(=O)C[C@@H]3[C@@]4(C)CC[C@H](OC(C)=O)C(C)(C)[C@@H]4CC[C@@]3(C)[C@]1(C)CC2` (some centres not stated) the value was 0%. `CC1(C)CC[C@@]23CC[C@]4(C)[C@@](OC2O)(C3C1)[C@@H](O)C[C@@H]1[C@@]2(C)CC[C@H](O)C(C)(C)[C@@H]2CC[C@]14C` (some centres not stated) displayed an Inhibition of 21%.

`CC1(C)CCC2(C(=O)O)CC[C@]3(C)C(=CC[C@@H]4[C@@]5(C)CCC(=O)NC(C)(C)[C@@H]5CC[C@]43C)C2C1` (some centres not stated) gave an Inhibition of 51%. Take `CC1(C)CC[C@]2(C(=O)O)CC[C@]3(C)C(=CC[C@@H]4[C@@]5(C)CCC(=O)C(C)(C)[C@@H]5CC[C@]43C)[C@@H]2C1` [OLEANONIC ACID]: the Inhibition is reported as 16%. For `CC1(C)CCC2(C(=O)O)CC[C@]3(C)C(=C2C1)C=C[C@@H]1[C@@]2(C)CCC(=O)C(C)(C)[C@@H]2CC[C@]13C` (some centres not stated) the value was 47%. For `C[C@@H]1CCC2(C(=O)O)CC[C@]3(C)C(=CC[C@@H]4[C@@]5(C)CCC(=O)C(C)(C)[C@@H]5CC[C@]43C)C2[C@H]1C` (some centres not stated), the Inhibition was 22%. For `COC(=O)C12CCC(C)(C)CC1C1=CC[C@@H]3[C@@]4(C)CC=CC(C)(C)[C@@H]4CC[C@@]3(C)[C@]1(C)CC2` (some centres not stated) the value was 3%; for `CC1(C)CCC2(C=O)CC[C@]3(C)C(=CC[C@@H]4[C@@]5(C)CCC(=O)C(C)(C)[C@@H]5CC[C@]43C)C2C1` (some centres not stated), 11%.

As to `CC1(C)CC[C@@]23CC[C@]4(C)[C@@](OC2=O)(C3C1)[C@@H](Br)C[C@@H]1[C@@]2(C)CCC(=O)C(C)(C)[C@@H]2CC[C@]14C` (some centres not stated), the Inhibition came to 4%.

Molecule `CC(=O)OCC12CCC(C)(C)CC1[C@H]1[C@H](OC(C)=O)C[C@@H]3[C@@]4(C)CC[C@H](OC(C)=O)C(C)(C)[C@@H]4CC[C@@]3(C)[C@]1(C)CC2` (some centres not stated) came in with an Inhibition of 0%.

The molecule `C[C@]12CCC(=O)C=C1CC[C@@H]1[C@@H]2[C@@H](O)C[C@@]2(C)[C@H]1CC[C@]2(O)C(=O)CO` [HYDROCORTISONE] yielded an Inhibition of 80%. With `CC(=O)OCC12CCC(C)(C)CC1[C@H]1[C@@H](O)C[C@@H]3[C@@]4(C)CC[C@H](OC(C)=O)C(C)(C)[C@@H]4CC[C@@]3(C)[C@]1(C)CC2` (some centres not stated), the Inhibition amounted to 0%.

In turn, `COC(=O)C12CCC(C)(C)CC1[C@H]1C(=O)C[C@@H]3[C@@]4(C)CC[C@H](O)C(C)(C)[C@@H]4CC[C@@]3(C)[C@]1(C)CC2` (some centres not stated) registered an Inhibition of 0%. Under `COC(=O)C12CCC(C)(C)CC1C1=CC[C@@H]3[C@@]4(C)CCC(=O)NC(C)(C)[C@@H]4CC[C@@]3(C)[C@]1(C)CC2` (some centres not stated) stands 0%; under `C=C(C)[C@@H]1CC[C@]2(C)[C@H](CC=C3C4[C@@H](C)[C@H](C)CC[C@]4(C(=O)O)CC[C@]32C)[C@@]1(C)CCC#N` (some centres not stated), 39%; under `CC1(C)CCC2(C(=O)O)CC[C@]3(C)C(=CC[C@@H]4[C@@]5(C)CC[C@@H](Cl)C(C)(C)[C@@H]5CC[C@]43C)C2C1` (some centres not stated), 0%.
